According to patent US20250034182A1, “PHOSPHOLIPID COMPOUNDS AND METHODS OF MAKING AND USING THE SAME” (priority 2021, published 2025):
Where two headings read alike, the source gives them in different places.

Assays:
Format in all cases: cell-based
[1] = system: CAN97-83-GFP1 (A2a) hMPV in H1-HeLa cells; assay: hMPV H1-Hela EC50, anti-nucleoprotein ELISA (Example X); details: human metapneumovirus, 96 h, read-out: hMPV H1-Hela EC50 (nM) (per Ex. X)
Experimental: The human metapneumoavirus (hMPV) anti-viral assay is an anti-nucleoprotein ELISA performed in infected H1-HeLa cells. H1-HeLa cells were maintained in Dulbecco's Modified Eagle's Medium with high glucose (Gibco, Cat #: 11995073) supplemented with 10% FBS (HyClone, Cat #: SH303396.03), 100 units/mL penicillin and 100 μg/mL streptomycin (Gibco, Cat #: 15140122). One day before infection, H1-HeLa cells were seeded into 96-well plates (Corning, Cat. #: 3903) at 0.1 mL/well at 1.5×10^5 cells/mL in Opti-MEM (Gibco, Cat #: 31985070) supplemented with 2% FBS, and were incubated at 37° C. in a 100% humid atmosphere containing 5% (v/v) CO2 overnight. On the next day, CAN97-83-GFP1 (A2a) hMPV was diluted in Opti-MEM medium containing 200 μg/mL CaCl2) and 2 μg/mL TPCK treated trypsin and distributed to the 96-well plates at 0.1 mL/well for an MOI=0.1. Test compounds were distributed to each well using a HP D300e digital dispenser with a final volume of 200 µL/well. After the plates were centrifuged at 700 g for one hour at room temperature, they were maintained in a humidified chamber at 37-C with 5% (v/v) CO2 for 96 hours. After the incubation, the medium was removed, and the plates were fixed with 0.1 mL/well 1% formaldehyde for 15 min at room temperature. The fixative was removed, the plates were air dried for 30-60 minutes, and then permeabilized with 0.1 mL/well 0.5% Triton X-100 in PBS for five minutes at room temperature. Following permeabilization, the plates were washed once with 0.1 mL/well blocking buffer consisting of 10% FBS (HyClone, Cat #: SH303396.03), 5% dry milk (AmericanBio, Cat #: AB10109-01000), and 0.1% Tween 20 (EMD Millipore, Cat #655204) in PBS. The plates were blocked with 0.1 mL/well blocking buffer for 60 minutes at 37° C. afterward. The blocking buffer was removed and 0.05 mL/well human metapneumovirus nucleocapsid antibody (Sigma, Cat #MAB80121) diluted 1:500 in Blocking buffer was added and incubated for two hours at 37-C. The plates were then washed with 0.2 mL/well 0.1% Tween 20/PBS five times, followed by addition of 0.05 mL/well of horseradish peroxidase (HRP) conjugated goat anti-mouse IgG antibody (Fisher Scientific, Cat #501077607) at 1:2000 dilution in the blocking buffer. After one-hour incubation at 37-C, plates were washed five times with 0.2 mL/well 0.1% tween 20 in PBS. The HRP signals were developed by adding 0.1 mL/well of TMB reagent (Thermo Scientific, Cat #: ENN301) and incubating at room until the positive control was apparent. At that point, the reaction was stopped by adding 0.1 mL/well TMB stop solution (SeraCare, Cat #: 5150-0021). The absorbance was measured at 450 nm with an EnVision plate reader. The relative absorbance was calculated by normalizing the absorbance of the compound-treated groups to that of the DMSO-treated groups (set as 100%). EC50 values were calculated using a nonlinear four parameter variable slope regression model.

HCV Replicon 1B = HCV Replicon 1B EC50 (Example Q); details: Hepatitis C virus, 72 h, read-out: HCV Replicon 1B EC50 (nM) (per Ex. Q)
Experimental: (§1) Compounds were serially diluted in ten steps of 1:3 dilutions in 384-well plates. All serial dilutions were performed in four replicates per compound within the same 384-well plate. An HCV protease inhibitor ITMN-191 at […] was added as a control of 100% inhibition of HCV replication while puromycin at 10 mM was included as a control of 100% cytotoxicity. To each well of a black polystyrene 384-well plate (Greiner Bio-one, Monroe, NC), 90 μL of cell culture medium (without Geneticin) containing 2000 suspended HCV replicon cells was added with a Biotek μFlow workstation. For compound transfer into cell culture plates, 0.4 μL of compound solution from the compound serial dilution plate was transferred to the cell culture plate on a Biomek FX workstation. The DMSO concentration in the final assay wells was 0.44%. The plates were incubated for 3 days at 37° C. with 5% CO2 and 85% humidity. The HCV replicon assay was a multiplex assay, able to assess both cytotoxicity and antireplicon activity from the same well. The CC50 assay was performed first. The media in the 384-well cell culture plate was aspirated, and the wells were washed four times with 100 μL of PBS each, using a Biotek ELX405 plate washer. A volume of 50 μL of a solution containing 400 nM calcein AM (Anaspec, Fremont, CA) in 1×PBS was added to each well of the plate with a Biotek μFlow workstation. The plate was incubated for 30 min at room temperature before the fluorescence signal (excitation 490 nm, emission 520 nm) was measured with a Perkin-Elmer Envision plate reader. The EC50 assay was performed in the same wells as the CC50 assay. The calcein-PBS solution in the 384-well cell culture plate was aspirated with a Biotek ELX405 plate washer. A volume of 20 μL of Dual-Glo luciferase buffer (Promega, Madison, WI) was added to each well of the plate with a Biotek μFlow Workstation. The plate was incubated for 10 min at room temperature. A volume of 20 μL of a solution containing a 1:100 mixture of Dual-Glo Stop & Glo substrate (Promega, Madison, WI) and Dual-Glo Stop & Glo buffer (Promega, Madison, WI) was added to each well of the plate with a Biotek μFlow Workstation. The plate was then incubated at room temperature for 10 min before the luminescence signal was measured with a Perkin-Elmer Envision Plate Reader.

[2] = HCV Replicon 1B CC50, calcein AM (Example Q); details: calcein AM fluorescence, read-out: HCV Replicon 1B CC50 (nM) (per Ex. Q)
Experimental: as §1

[3] = HCV replicon cells, 3 days, Dual-Glo luciferase

Row | Compound | EC50 [1] | EC50 (HCV Replicon 1B; [3]) | CC50 at 3 days ([2]; HCV replicon cells (1B)) | EC50 (HCV Replicon 1B) | CC50 at 3 days ([2]; HCV replicon cells)
1 | CCCCCCCCCCCCCCCCCCOC[C@H](COP(=O)(O)OC[C@@]1(C#N)O[C@@H](c2ccc3c(N)ncnn23)[C@H](O)[C@@H]1O)OCc1cc(F)cc(C#N)c1 [Compound 1, ((2R,3S,4R,5S)-5-(4-aminopyrrolo[2,1-f][1,2,4]triazin-7-yl)-2-cyano-3,4-dihydroxytetrahydrofuran-2-yl)methyl ((R)-2-((3-cyano-5-fluorobenzyl)oxy)-3-(octadecyloxy)propyl) hydrogen phosphate] | 440 nM | 13800 nM | > 44400 nM |  | 
2 | CCCCCCCCCCCCCCCCCCOC[C@H](COP(=O)(O)OC[C@@]1(C#N)O[C@@H](c2ccc3c(N)ncnn23)[C@H](O)[C@@H]1O)OCc1ccc(C#N)c(Cl)c1 [Compound 7, ((2R,3S,4R,5S)-5-(4-aminopyrrolo[2,1-f][1,2,4]triazin-7-yl)-2-cyano-3,4-dihydroxytetrahydrofuran-2-yl)methyl ((R)-2-((3-chloro-4-cyanobenzyl)oxy)-3-(octadecyloxy)propyl) hydrogen phosphate] | 358 nM | 16700 nM | > 44400 nM |  | 
3 | CCCCCCCCCCCCCCCCCCC[C@H](COP(=O)(O)OC[C@@]1(C#N)O[C@@H](c2ccc3c(N)ncnn23)[C@H](O)[C@@H]1O)OCc1ccc(-n2cncn2)c(C#N)c1 [Compound 30, ((2R,3S,4R)-5-(4-aminopyrrolo[2,1-f][1,2,4]triazin-7-yl)-2-cyano-3,4-dihydroxytetrahydrofuran-2-yl)methyl ((R)-2-((3-cyano-4-(1H-1,2,4-triazol-1-yl)benzyl)oxy)henicosyl) hydrogen phosphate] | 188 nM |  |  | 3990 nM | > 44400 nM
4 | CCCCCCCCCCCCCCCCC[C@H](COP(=O)(O)OC[C@@]1(C#N)O[C@@H](c2ccc3c(N)ncnn23)[C@H](O)[C@@H]1O)OCc1cc(F)cc(C#N)c1 [Compound 36, ((2R,3S,4R,5S)-5-(4-aminopyrrolo[2,1-f][1,2,4]triazin-7-yl)-2-cyano-3,4-dihydroxytetrahydrofuran-2-yl)methyl ((R)-2-((3-cyano-5-fluorobenzyl)oxy)nonadecyl) hydrogen phosphate] | 1100 nM |  |  | 26300 nM | > 44400 nM
5 | CCCCCCCCCCCCCCCCCOC[C@H](COP(=O)(O)OC[C@@]1(C#N)O[C@@H](c2ccc3c(N)ncnn23)[C@H](O)[C@@H]1O)OCc1cc(F)cc(C#N)c1 [Compound 53, ((2R,3S,4R,5S)-5-(4-aminopyrrolo[2,1-f][1,2,4]triazin-7-yl)-2-cyano-3,4-dihydroxytetrahydrofuran-2-yl)methyl ((R)-2-((3-cyano-5-fluorobenzyl)oxy)-3-(heptadecyloxy)propyl) hydrogen phosphate] |  | 15500 nM | > 44400 nM |  | 
6 | CCCCCCCCCCCCCCCCCCOC[C@H](COP(=O)(O)OC[C@@]1(C#N)O[C@@H](c2ccc3c(N)ncnn23)[C@H](O)[C@@H]1O)OCc1cccc(C#N)n1 [Compound 68, ((2R,3S,4R)-5-(4-aminopyrrolo[2,1-f][1,2,4]triazin-7-yl)-2-cyano-3,4-dihydroxytetrahydrofuran-2-yl)methyl ((R)-2-((6-cyanopyridin-2-yl)methoxy)-3-(octadecyloxy)propyl) hydrogen phosphate] | 214 nM |  |  | 11500 nM | > 44400 nM
7 | CCCCCCCCCCCCCCCCCCCC[C@@H](COP(=O)(O)OC[C@@]1(C#N)O[C@@H](c2ccc3c(N)ncnn23)[C@H](O)[C@@H]1O)OCc1cc(F)cc(C#N)c1 [Compound 70, ((2R,3S,4R)-5-(4-aminopyrrolo[2,1-f][1,2,4]triazin-7-yl)-2-cyano-3,4-dihydroxytetrahydrofuran-2-yl)methyl ((S)-2-((3-cyano-5-fluorobenzyl)oxy)docosyl) hydrogen phosphate] |  |  |  | 19600 nM | > 44400 nM
8 | CCCCCCCCCCCCCCCCCCOC[C@@H](COP(=O)(O)OC[C@@]1(C#N)O[C@@H](c2ccc3c(N)ncnn23)[C@H](O)[C@@H]1O)Oc1ccc(C#N)nc1 [Compound 72, ((2R,3S,4R,5S)-5-(4-aminopyrrolo[2,1-f][1,2,4]triazin-7-yl)-2-cyano-3,4-dihydroxytetrahydrofuran-2-yl)methyl ((S)-2-((6-cyanopyridin-3-yl)oxy)-3-(octadecyloxy)propyl) hydrogen phosphate] | 70 nM |  |  | 465 nM | > 44400 nM
9 | CCCCCCCCCCCCCCCCCCOC[C@H](COP(=O)(O)OC[C@@]1(C#N)O[C@@H](c2ccc3c(N)ncnn23)[C@H](O)[C@@H]1O)OCc1ccc(C#N)cc1OC [Compound 73, ((2R,3S,4R)-5-(4-aminopyrrolo[2,1-f][1,2,4]triazin-7-yl)-2-cyano-3,4-dihydroxytetrahydrofuran-2-yl)methyl ((R)-2-((4-cyano-2-methoxybenzyl)oxy)-3-(octadecyloxy)propyl) hydrogen phosphate] |  | 15900 nM | > 44400 nM |  | 
10 | CCCCCCCCCCCCCCCCC[C@@H](COP(=O)(O)OC[C@@]1(C#N)O[C@@H](c2ccc3c(N)ncnn23)[C@H](O)[C@@H]1O)OCc1cc(F)cc(C#N)c1 [Compound 74, ((2R,3S,4R)-5-(4-aminopyrrolo[2,1-f][1,2,4]triazin-7-yl)-2-cyano-3,4-dihydroxytetrahydrofuran-2-yl)methyl ((S)-2-((3-cyano-5-fluorobenzyl)oxy)nonadecyl) hydrogen phosphate] |  |  |  | 26200 nM | > 44400 nM
11 | CCCCCCCCCCCCCCCC[C@H](COP(=O)(O)OC[C@@]1(C#N)O[C@@H](c2ccc3c(N)ncnn23)[C@H](O)[C@@H]1O)OCc1cc(F)cc(C#N)c1 [Compound 78, ((2R,3S,4R,5S)-5-(4-aminopyrrolo[2,1-f][1,2,4]triazin-7-yl)-2-cyano-3,4-dihydroxytetrahydrofuran-2-yl)methyl ((R)-2-((3-cyano-5-fluorobenzyl)oxy)octadecyl) hydrogen phosphate] |  | 27600 nM | > 44400 nM |  | 
